Assay results as given in patent US20110178104A1, “Anti-Heparin Compounds” (POLYMEDIX INC., priority 2010, published 2011).
pEC50: −log10 of the molar value. Converted amounts (≈) assume the structure as drawn. Starred links: 1 amine or outer side, 2 acyl side, 3 side chain; linkers in the order of their positions; H or OH if unused. Non-standard residues stand in square brackets, D forms with d. Residues, ends and D or L forms follow the SMILES beside them. *: point of attachment. NH(3-CONH2-4-OMe-phenyl) = COc1ccc(N*)cc1C(N)=O; 3Abz(6-OMe) = COc1ccc(N[*:1])cc1C(=O)[*:2]; dOrn = NCCC[C@@H](N)C(=O)O

Experiments:
tinzaparin = experiment: FXa amidolytic assay (Example 10), tinzaparin; conditions: read-out: Tinzap FXa EC50; tinzaparin 0.1 ug/ml; human antithrombin, bovine Factor Xa
fondaparinux = experiment: FXa amidolytic assay (Example 10), fondaparinux; conditions: read-out: Fondap FXa EC50; fondaparinux 0.02 μg/mL; human antithrombin, bovine Factor Xa
Unfractionated heparin = experiment: aPTT clotting assay, UFH 0.4 U/mL in plasma (Example 10); format: biochemical; conditions: unfractionated heparin 0.4 U/mL in plasma; aPTT clotting
Experimental: (§1) aPTT clotting Assay: Unfractionated heparin was mixed with plasma at a final concentration of 0.4 U/mL (or concentration which increases aPTT time to between 120 and 300 seconds). […] The ACL Elite Hemostasis analyzer (Beckman Coulter™) was used to add aPTT reagent (HemosIL SynthASil) to supplemented plasma. Clotting was initiated by addition of CaCl2 and time to clot was recorded.

[1] = tested on: isolated human erythrocytes; experiment: in vitro; format: cell-based; conditions: human RBC, 1 hour at 37° C.; for EC50: Homo sapiens, Erythrocyte, 1 h, read-out: Hemolysis EC50
Experimental: Hemolysis assay: Cytotoxicity was also evaluated in a hemolysis assay using isolated human erythrocytes. Pooled whole human blood was centrifuged to separate the red blood cells (RBC). The isolated RBCs were rinsed and diluted in Tris-buffered saline (TBS buffer, pH 7.4) to obtain a 0.22% RBC stock suspension. Serial two-fold dilutions of test agent were assayed over a concentration range of 1000 to 0.48 μg/ml with shaking for 1 hour at 37° C. At the conclusion of the incubation time, samples were centrifuged and 30 μl of the supernatant was added to 100 μl H2O. OD405 measurements were read for hemoglobin concentration. The bee venom peptide melittin was used as a positive control. EC50 values were determined using a four parameter logistic equation: Y=Bottom+(Top-Bottom)/(1+10̂((LogEC50-X)*HillSlope)).

enoxaparin = experiment: FXa amidolytic assay (Example 10), enoxaparin; conditions: read-out: Enox FXa EC50; enoxaparin 0.1 ug/ml; human antithrombin, bovine Factor Xa
[2] = tested on: unfractionated heparin (UFH); experiment: aPTT clotting assay, UFH 0.2 U/mL in plasma (Example 7); format: biochemical; conditions: UFH 0.2 U/mL in plasma
Experimental: as §1, with “Assay.” for “Assay:”, “0.2 U/mL.” for “0.4 U/mL (or concentration which increases aPTT time to between 120 and 300 seconds).”

enoxaparin (ENOX) = experiment: FXa chromogenic assay (absence of plasma), enoxaparin; conditions: enoxaparin 0.1 μg/mL, absence of plasma
fondaparinux (FONDAPX) = experiment: FXa chromogenic assay (absence of plasma), fondaparinux; conditions: fondaparinux 0.02 μg/mL, absence of plasma

| pEC50 (tinzaparin) | pEC50 (fondaparinux) | pEC50 (Unfractionated heparin) | pEC50 (enoxaparin) | UFH (aPTT) EC50 [2] | ENOX (FXa) EC50 (enoxaparin (ENOX)) | FONDAPX (FXa) EC50 (fondaparinux (FONDAPX)) | Compound | Hemolysis EC50 [1] | EC50 [1] |
| --- | --- | --- | --- | --- | --- | --- | --- | --- | --- |
| 6.99 | 6.41 | 5.69 | 6.92 |  |  |  | COc1ccc(NC(=O)[C@H](CCCNC(=N)N)NC(=O)c2cc(NC(=O)[C@H](CCCNC(=N)N)NC(=O)c3cc(NC(=O)[C@H](CCCNC(=N)N)NC(=O)c4cc(NC(=O)[C@@H](N)CCCNC(=N)N)ccc4OC)ccc3OCC(=O)O)ccc2OC)cc1C(N)=O [Compound 288] | no significant decrease |  |
| 6.92 | 6.41 | 5.84 | 6.86 |  |  |  | COc1ccc(NC(=O)[C@H](CCCCN)NC(=O)c2cc(NC(=O)[C@H](CCCCN)NC(=O)c3cc(NC(=O)[C@H](CCCCN)NC(=O)c4cc(NC(=O)[C@@H](N)CCCCN)ccc4OC)ccc3OC)ccc2OC)cc1C(=O)N[C@@H](Cc1ccc(O)cc1)C(=O)O [Compound 265] | no significant decrease |  |
| 6.78 | 6.48 | 5.69 | 6.70 |  |  |  | COc1ccc(NC(=O)[C@H](CCCNC(=N)N)NC(=O)c2cc(NC(=O)[C@H](CCCNC(=N)N)NC(=O)c3cc(NC(=O)[C@H](CCCNC(=N)N)NC(=O)c4cc(NC(C)=O)ccc4OC)ccc3OC)ccc2OC)cc1C(N)=O [Compound 298] | no significant decrease |  |
| 6.87 | 6.72 | < 5.00 | 6.80 |  |  |  | COc1ccc(NC(=O)[C@@H](CCCNC(=N)N)NC(=O)c2cc(NC(=O)[C@@H](CCCNC(=N)N)NC(=O)c3cc(NC(=O)[C@@H](CCCNC(=N)N)NC(=O)c4cc(NC(C)=O)ccc4OC)ccc3OCC(=O)O)ccc2OC)cc1C(=O)N[C@H](Cc1c[nH]c2ccccc12)C(N)=O [Compound 308] |  | ~500 µg/mL (≈ 369 µM) |
| 6.93 | 6.93 | 5.42 | 6.92 |  |  |  | COc1ccc(NC(=O)[C@@H](CCCNC(=N)N)NC(=O)c2cc(NC(=O)[C@@H](CCCNC(=N)N)NC(=O)c3cc(NC(=O)[C@@H](CCCNC(=N)N)NC(=O)c4cc(NC(=O)[C@H](N)CCCNC(=N)N)ccc4OC)ccc3OCC(=O)O)ccc2OC)cc1C(=O)N[C@H](Cc1c[nH]c2ccccc12)C(N)=O [Compound 307] |  | ~50 µg/mL (≈ 34 µM) |
|  |  |  |  | inactive | 45.00 µg/mL | inactive | COc1c(NC(=O)[C@@H](CCCCN)NC(=O)c2cccc(NC(=O)[C@@H](CCCCN)NC(=O)c3cccc(NC(=O)[C@@H](CCCCN)NC(=O)c4cccc(NC(=O)[C@H](N)CCCCN)c4OC)c3OC)c2OC)cccc1C(N)=O [Compound 34] |  |  |
|  |  |  |  | 6.00 µg/mL | 1.49 µg/mL | 10.50 µg/mL | COc1ccc(NC(=O)[C@H](CCCCN)NC(=O)c2cc(NC(=O)[C@H](C)NC(=O)c3cc(NC(=O)[C@H](CCCCN)NC(=O)c4cc(NC(=O)[C@@H](N)CCCCN)ccc4OC)ccc3OC)ccc2OC)cc1C(N)=O [Compound 76] |  |  |
|  |  |  |  | 2.23 µg/mL | 0.6089 µg/mL | 9.853 µg/mL | COc1ccc(NC(=O)[C@H](CCCCN)NC(=O)c2cc(NC(=O)[C@H](CCCCN)NC(=O)c3cc(NC(=O)[C@H](CCCCN)NC(=O)c4cc(NC(=O)[C@@H](N)CCCCN)ccc4OC)ccc3OC)ccc2OC)cc1C(=O)N[C@@H](C)C(=O)O [Compound 109] |  |  |
|  |  |  |  | 2.03 µg/mL | 0.58 µg/mL | 13.11 µg/mL | COc1ccc(NC(=O)[C@H](CCCCN)NC(=O)c2cc(NC(=O)[C@H](CCCCN)NC(=O)c3cc(NC(=O)[C@H](CCCCN)NC(=O)c4cccc(NC(=O)[C@@H](N)CCCCN)c4)ccc3OC)ccc2OC)cc1C(N)=O [Compound 91] |  |  |
|  |  |  |  | inactive | 0.35 µg/mL | 4.34 µg/mL | COc1ccc(NC(=O)[C@H](CCCCN)NC(=O)c2cc(NC(=O)[C@H](CCCCN)NC(=O)c3cc(NC(=O)[C@H](CCCNC(=N)N)NC(=O)c4cc(NC(=O)[C@@H](N)CCCCN)ccc4OC)ccc3OC)ccc2OC)cc1C(N)=O [Compound 80] |  |  |
|  |  |  |  | 1.67 µg/mL | 0.22 µg/mL | 1.12 µg/mL | COc1ccc(NC(=O)[C@@H](CCCNC(=N)N)NC(=O)c2cc(NC(=O)[C@@H](CCCNC(=N)N)NC(=O)c3cc(NC(=O)[C@@H](CCCNC(=N)N)NC(=O)c4cc(NC(=O)CCCCNC(=N)N)ccc4OC)ccc3OC)ccc2OC)cc1C(N)=O [Compound 50] |  |  |
|  |  |  |  | >10 µg/mL | 1.934 µg/mL | inactive | COc1ccc(NC(=O)[C@H](CCCNC(=N)N)NC(=O)c2cc(NC(=O)[C@@H](N)CCCNC(=N)N)ccc2OC)cc1C(=O)N[C@@H](CCCNC(=N)N)C(=O)Nc1ccc(OC)c(C(=O)N[C@@H](CCCNC(=N)N)C(=O)Nc2ccc(OC)c(C(=O)N3CCCC3C(N)=O)c2)c1 (stereo partly shown) [Compound 123] |  |  |
|  |  |  |  | 3.09 µg/mL | 0.32 µg/mL | 1.99 µg/mL | COc1ccc(NC(=O)[C@@H](Cc2c[nH]c3ccccc23)NC(=O)c2cc(NC(=O)[C@@H](CCCNC(=N)N)NC(=O)c3cc(NC(=O)[C@@H](CCCNC(=N)N)NC(=O)c4cc(NC(=O)[C@H](N)CCCNC(=N)N)ccc4OC)ccc3OC)ccc2OC)cc1C(N)=O [Compound 84] |  |  |
|  |  |  |  | 1.72 µg/mL | 0.30 µg/mL | 3.35 µg/mL | COc1ccc(NC(=O)[C@@H](CCCN)NC(=O)c2cc(NC(=O)[C@@H](CCCNC(=N)N)NC(=O)c3cc(NC(=O)[C@@H](CCCNC(=N)N)NC(=O)c4cc(NC(=O)CCCCN)ccc4OC)ccc3OC)ccc2OC)cc1C(N)=O [Compound 48] |  |  |
|  |  |  |  | 1.99 µg/mL | 0.29 µg/mL | 4.26 µg/mL | COc1ccc(NC(=O)[C@@H](CCCNC(=N)N)NC(=O)c2cccc(NC(=O)[C@@H](CCCNC(=N)N)NC(=O)c3cc(NC(=O)[C@@H](CCCNC(=N)N)NC(=O)c4cc(NC(=O)[C@H](N)CCCNC(=N)N)ccc4OC)ccc3OC)c2)cc1C(N)=O [Compound 68] |  |  |
|  |  |  |  | 2.34 µg/mL | 4.07 µg/mL | 70.66 µg/mL | COc1ccc(NC(=O)[C@@H](CCCNC(=N)N)NC(=O)c2cc(NC(=O)[C@@H](CCCNC(=N)N)NC(=O)c3cc(NC(=O)[C@H](N)CCCNC(=N)N)ccc3OC)ccc2OC)cc1C(=O)N[C@H](CCCNC(=N)N)C(N)=O [Compound 42] |  |  |
|  |  |  |  | inactive | 13.76 µg/mL | 76.88 µg/mL | COc1ccc(NC(=O)[C@@H](CCCN)NC(=O)[C@@H](CCCN)NC(=O)c2cc(NC(=O)[C@@H](CCCN)NC(=O)c3cc(NC(=O)[C@@H](CCCNC(=N)N)NC(=O)c4cc(NC(=O)[C@H](N)CCCN)ccc4OC)ccc3OC)ccc2OC)cc1C(N)=O [Compound 46] (H-[dOrn][3Abz(6-OMe)][dR][3Abz(6-OMe)][dOrn][3Abz(6-OMe)][dOrn][dOrn]-{NH(3-CONH2-4-OMe-phenyl)}) |  |  |
|  |  |  |  | 2.00 µg/mL | 0.3761 µg/mL | 4.025 µg/mL | COc1ccc(NC(=O)[C@H](CCCCN)NC(=O)c2cc(NC(=O)[C@H](CCCCN)NC(=O)c3cc(NC(=O)[C@H](CCCCN)NC(=O)c4cc(NC(=O)[C@@H](N)CCCNC(N)=O)ccc4OC)ccc3OC)ccc2OC)cc1C(N)=O [Compound 137] |  |  |
|  |  |  |  | 1.97 µg/mL | 0.26 µg/mL | 3.23 µg/mL | COc1ccc(NC(=O)[C@H](CCCCN)NC(=O)c2cc(NC(=O)[C@H](CCCCN)NC(=O)c3cc(NC(=O)[C@H](CCCCN)NC(=O)c4cc(NC(=O)[C@@H](N)CCCNC(=N)N)ccc4OC)ccc3OC)ccc2OC)cc1C(N)=O [Compound 81] |  |  |
|  |  |  |  | 4.89 µg/mL | 0.2306 µg/mL | 0.4025 µg/mL | COc1ccc(NC(=O)[C@H](CCCCN)NC(=O)c2cc(NC(=O)[C@H](CCCCN)NC(=O)c3cc(NC(=O)[C@H](CCCCN)NC(=O)c4cc(NC(=O)[C@@H](N)CCCCN)ccc4OC)ccc3OC)ccc2OC)cc1C(=O)N[C@@H](Cc1c[nH]c2ccccc12)C(=O)O [Compound 113] |  |  |
